Laboratory results: the supplement of paper PMC10307832

Legend:
Assay in all cases: relative viability (nuclei count vs DMSO), 5 days (fraction); higher = more cells survive
201T = tested on: 201T
How it was run: (§1)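 Medians of duplicate plates are given as relative viability. That measure is the nuclei count in treated wells divided by the count in vehicle wells. Counts were taken on 4× images of lung cancer cell lines in 1536-well plates, 5 days after pin-tool dosing the day after seeding with one drug alone or a fixed anchor-drug dose plus five library-drug doses (not always all listed) in √10 steps.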

BEN = tested on: BEN
How it was run: as §1

COR-L 105 = tested on: COR-L 105
How it was run: as §1

EKVX = tested on: EKVX
How it was run: as §1

EPLC-272H = tested on: EPLC-272H
How it was run: as §1

H3255 = tested on: H3255
How it was run: as §1

HCC-44 = tested on: HCC-44
How it was run: as §1

HCC-827 = tested on: HCC-827
How it was run: as §1

LCLC-97TM1 = tested on: LCLC-97TM1
How it was run: as §1

LOU-NH91 = tested on: LOU-NH91
How it was run: as §1

LU99A = tested on: LU99A
How it was run: as §1

NCI-H1437 = tested on: NCI-H1437
How it was run: as §1

NCI-H1666 = tested on: NCI-H1666
How it was run: as §1

NCI-H1975 = tested on: NCI-H1975
How it was run: as §1

NCI-H2085 = tested on: NCI-H2085
How it was run: as §1

NCI-H2087 = tested on: NCI-H2087
How it was run: as §1

NCI-H2170 = tested on: NCI-H2170
How it was run: as §1

NCI-H647 = tested on: NCI-H647
How it was run: as §1

NCI-H650 = tested on: NCI-H650
How it was run: as §1

PC-3 [JPC-3] = tested on: PC-3 [JPC-3]
How it was run: as §1

SW 1573 = tested on: SW 1573
How it was run: as §1

Compound: COc1cc2nccc(Oc3ccc(NC(=O)Nc4cc(C)on4)c(Cl)c3)c2cc1OC [Tivozanib] + CS(=O)(=O)CCNCc1ccc(-c2ccc3ncnc(Nc4ccc(OCc5cccc(F)c5)c(Cl)c4)c3c2)o1 [Lapatinib] (partner 2 µM)
- relative viability (201T; first compound 0.005 µM): 1.04
- relative viability (201T; first compound 0.01581 µM): 1.06
- relative viability (201T; first compound 0.05 µM): 1.01
- relative viability (201T; first compound 0.1581 µM): 0.988
- relative viability (201T; first compound 0.5 µM): 1.07
- relative viability (BEN; first compound 0.005 µM): 0.476
- relative viability (BEN; first compound 0.01581 µM): 0.839
- relative viability (BEN; first compound 0.05 µM): 0.722
- relative viability (BEN; first compound 0.5 µM): 0.633
- relative viability (COR-L 105; first compound 0.01581 µM): 0.317
- relative viability (COR-L 105; first compound 0.05 µM): 0.368
- relative viability (COR-L 105; first compound 0.1581 µM): 0.322
- relative viability (COR-L 105; first compound 0.5 µM): 0.339
- relative viability (EKVX; first compound 0.005 µM): 0.224
- relative viability (EKVX; first compound 0.01581 µM): 0.199
- relative viability (EKVX; first compound 0.05 µM): 0.216
- relative viability (EKVX; first compound 0.1581 µM): 0.182
- relative viability (EKVX; first compound 0.5 µM): 0.192
- relative viability (EPLC-272H; first compound 0.005 µM): 0.854
- relative viability (EPLC-272H; first compound 0.01581 µM): 0.844
- relative viability (EPLC-272H; first compound 0.05 µM): 0.938
- relative viability (EPLC-272H; first compound 0.1581 µM): 0.806
- relative viability (EPLC-272H; first compound 0.5 µM): 0.671
- relative viability (H3255; first compound 0.005 µM): 0.247
- relative viability (H3255; first compound 0.01581 µM): 0.223
- relative viability (H3255; first compound 0.05 µM): 0.23
- relative viability (H3255; first compound 0.1581 µM): 0.232
- relative viability (H3255; first compound 0.5 µM): 0.211
- relative viability (HCC-44; first compound 0.005 µM): 0.95
- relative viability (HCC-44; first compound 0.01581 µM): 0.991
- relative viability (HCC-44; first compound 0.05 µM): 1.01
- relative viability (HCC-44; first compound 0.1581 µM): 0.991
- relative viability (HCC-44; first compound 0.5 µM): 0.952
- relative viability (HCC-827; first compound 0.005 µM): 0.244
- relative viability (HCC-827; first compound 0.01581 µM): 0.181
- relative viability (HCC-827; first compound 0.05 µM): 0.204
- relative viability (HCC-827; first compound 0.1581 µM): 0.233
- relative viability (HCC-827; first compound 0.5 µM): 0.842
- relative viability (LCLC-97TM1; first compound 0.005 µM): 0.948
- relative viability (LCLC-97TM1; first compound 0.01581 µM): 1.23
- relative viability (LCLC-97TM1; first compound 0.1581 µM): 0.807
- relative viability (LCLC-97TM1; first compound 0.5 µM): 0.821
- relative viability (LOU-NH91; first compound 0.005 µM): 0.704
- relative viability (LOU-NH91; first compound 0.01581 µM): 0.772
- relative viability (LOU-NH91; first compound 0.05 µM): 0.758
- relative viability (LOU-NH91; first compound 0.1581 µM): 0.62
- relative viability (LOU-NH91; first compound 0.5 µM): 0.794
- relative viability (LU99A; first compound 0.005 µM): 0.914
- relative viability (LU99A; first compound 0.01581 µM): 0.924
- relative viability (LU99A; first compound 0.05 µM): 0.967
- relative viability (LU99A; first compound 0.5 µM): 0.919
- relative viability (NCI-H1437; first compound 0.005 µM): 0.771
- relative viability (NCI-H1437; first compound 0.01581 µM): 0.8
- relative viability (NCI-H1437; first compound 0.05 µM): 0.777
- relative viability (NCI-H1437; first compound 0.1581 µM): 0.824
- relative viability (NCI-H1437; first compound 0.5 µM): 0.708
- relative viability (NCI-H1666; first compound 0.005 µM): 0.561
- relative viability (NCI-H1666; first compound 0.01581 µM): 0.621
- relative viability (NCI-H1666; first compound 0.05 µM): 0.641
- relative viability (NCI-H1666; first compound 0.1581 µM): 0.607
- relative viability (NCI-H1666; first compound 0.5 µM): 0.84
- relative viability (NCI-H1975; first compound 0.005 µM): 0.792
- relative viability (NCI-H1975; first compound 0.01581 µM): 0.871
- relative viability (NCI-H1975; first compound 0.05 µM): 0.864
- relative viability (NCI-H1975; first compound 0.1581 µM): 0.755
- relative viability (NCI-H1975; first compound 0.5 µM): 0.723
- relative viability (NCI-H2085; first compound 0.005 µM): 0.66
- relative viability (NCI-H2085; first compound 0.01581 µM): 0.769
- relative viability (NCI-H2085; first compound 0.05 µM): 0.774
- relative viability (NCI-H2085; first compound 0.1581 µM): 0.579
- relative viability (NCI-H2085; first compound 0.5 µM): 0.627
- relative viability (NCI-H2087; first compound 0.005 µM): 1
- relative viability (NCI-H2087; first compound 0.01581 µM): 0.885
- relative viability (NCI-H2087; first compound 0.05 µM): 0.942
- relative viability (NCI-H2087; first compound 0.1581 µM): 1.2
- relative viability (NCI-H2087; first compound 0.5 µM): 0.859
- relative viability (NCI-H2170; first compound 0.005 µM): 0.252
- relative viability (NCI-H2170; first compound 0.01581 µM): 0.296
- relative viability (NCI-H2170; first compound 0.05 µM): 0.266
- relative viability (NCI-H2170; first compound 0.5 µM): 0.289
- relative viability (NCI-H647; first compound 0.005 µM): 0.935
- relative viability (NCI-H647; first compound 0.01581 µM): 0.971
- relative viability (NCI-H647; first compound 0.05 µM): 0.98
- relative viability (NCI-H647; first compound 0.1581 µM): 0.866
- relative viability (NCI-H647; first compound 0.5 µM): 0.966
- relative viability (NCI-H650; first compound 0.005 µM): 0.759
- relative viability (NCI-H650; first compound 0.01581 µM): 0.807
- relative viability (NCI-H650; first compound 0.05 µM): 0.844
- relative viability (NCI-H650; first compound 0.1581 µM): 0.415
- relative viability (NCI-H650; first compound 0.5 µM): 0.535
- relative viability (PC-3 [JPC-3]; first compound 0.005 µM): 0.429
- relative viability (PC-3 [JPC-3]; first compound 0.01581 µM): 0.453
- relative viability (PC-3 [JPC-3]; first compound 0.05 µM): 0.509
- relative viability (PC-3 [JPC-3]; first compound 0.1581 µM): 0.378
- relative viability (PC-3 [JPC-3]; first compound 0.5 µM): 0.433
- relative viability (SW 1573; first compound 0.005 µM): 0.909
- relative viability (SW 1573; first compound 0.01581 µM): 1.25
- relative viability (SW 1573; first compound 0.05 µM): 1.16
- relative viability (SW 1573; first compound 0.1581 µM): 0.856
- relative viability (SW 1573; first compound 0.5 µM): 1.08
